One molecule from patent US20220313620A1, “COMPOSITION FOR PREVENTING AND TREATING TAUOPATHIES” (SERVICIO ANDALUZ DE SALUD, priority 2019, published 2022) can be followed below.

One experiment deals with Protein Kinase A (PKA). The experiment is described as follows: Hippocampal PKA (western blot) after 10 days of oral drinking. Format: in vivo, Wistar rats. Particulars: oral by drinking 100 mg/Kg for 10 days, hippocampus, FIG. 10A.2. Here is the method: (§1) Animal experimental procedures were carried out in accordance with the European Communities directive 2010/63/EU and Spanish legislation (Real Decreto 53/2013). The protocol was approved by the Research and approved by Ethics Committee for Animal Experiments of the University of Malaga, Spain. In accordance with the ARRIVE guidelines, all efforts were made to minimize animal suffering and to reduce the number of animals used per experimental group. Chronic drinking experiments on Wistar rats were performed on 20 male rats. All adult rats, ageing 2 months (≈300 g of body weight), were provided by Charles River Laboratories (Barcelona, Spain). The animals were housed individually under a standard 12 h light-dark cycle in a room with temperature and humidity control. Water and rat chow pellets were provided ad libitum throughout the course of the present study. […]
(§2) Western Blot Analysis. […] Bands were quantified by densitometric analysis using ImageJ software (Rasband, WS, ImageJ, US National Institutes of Health, Bethesda, Md., USA). […] The results were expressed as the protein/α-Adaptin ratio or phosphorylated/total protein ratio and normalized to the control group (Y axis represents ‘fold mean of the control values’).
(§3) All data are expressed as mean±SEM. […]
In general terms: Immunoblotting shows a protein as a band on a membrane.

The test system of experiment [1] is Mitogen-activated Protein Kinase (MAPK/ERK1/2). The experiment is described as follows: Hippocampal MAPK/ERK1/2 (western blot) after 10 days of oral drinking. It is filed as in vivo, Wistar rats. The note with it: oral by drinking 100 mg/Kg for 10 days, hippocampus, FIG. 10. How it is done:
as §1, §2, §3

Another experiment has as its system Ghrelin. The experiment is described as follows: Plasma ghrelin (ELISA) after acute oral gavage in fasted rats. It is filed as in vivo. The note with it: adult male Wistar rats. Here is the method: The protocol was approved by the Ethics Committee for Animal Experiments of the University of Malaga.
D-Pinitol (3-0-methyl-D-chiro-inositol) was generously provided by EURONUTRA SL (https://www.euronutra.com/, Malaga, Spain), in the form of crystalline fine powder (lot: PPN-M0201). For acute treatments, D-Pinitol was dissolved in water to be administered by gavage (orally) at different concentrations (100 mg/Kg and 500 mg/Kg), drug was administered at a volume of 1 ml/kg.
After 18 hours of fasting, D-Pinitol dissolved in water was administered acutely by gavage (100 mg/kg in a first study, and 500 mg/kg in a subsequent study). After administration, the animals were sacrificed in groups at different times (being time 0 the administration of D-Pinitol). For the first study (100 mg/kg), groups of animals were sacrificed at times: 10, 20, 30, 60, 120, 240 and 360 minutes after administration; for the second study (500 mg/kg), animals were sacrificed at times: 60, 120 and 240 minutes after administration. As a control group, a group was administered only with water (by gavage).
Animals were anesthetized with sodium pentobarbital (50 mg/Kg, i.p.), blood, brain and liver samples were collected. Blood was centrifuged (2100 g for 8 min, 4° C.) and the plasma kept for further analysis. Liver and brain samples were flash-frozen in liquid N2, then stored at −80° C. until further analysis.
The plasma levels of insulin and ghrelin were determined with an enzyme-linked immunosorbent assay (ELISA) method using commercial kits: EMD Millipore Corporation (Billerica, Mass., USA) Cat. #EZRMI-13K and Cat. #EZRGRT-91K, respectively. Glucagon levels in plasma was determined with a Glucagon Enzyme Immunoassay (EIA) Kit: Cat. #RAB0202 Sigma-Aldrich (Saint Louis, Mo., USA). All serum samples were assayed in duplicate within one assay, and results were expressed in terms of the particular standard hormone.
For orientation: In an ELISA, binding on a coated surface is turned into a signal by an enzyme label.

In the case of `COC1[C@@H](O)[C@@H](O)C(O)[C@H](O)[C@H]1O` (stereo partly drawn) [DPIN, (1S,2S,4S,5R)-6-methoxycyclohexane-1,2,3,4,5-pentol], in the experiment on Protein Kinase A (PKA), the “total amount of PKA” value is on record as “significant increase”. Moreover, the “kinase activation and total expression of MAPK/ERK1/2” value in experiment [1] was “No other changes”. The “circulating plasma Ghrelin concentration” value is listed as “increase” in the experiment on Ghrelin (oral 100 mg/kg in sterile water, FIG. 2A) and “increase” in the experiment on Ghrelin (oral 500 mg/kg, FIG. 3A / FIG. 4).
